Data set [1] relates to Rattus norvegicus. Kind of data set: Antiinflammatory activity in Albino Wistar rat assessed as inhibition of carrageenan-induced hind paw edema at 0.05 mmol/kg, po treated 1 hr before carrageenan challenge by plethysmometer analysis. It is filed as functional, organism-based. The settings on record: TDE = time-dependent effect.
Data set [2] addresses Prostaglandin G/H synthase 1 (Homo sapiens, UniProt P23219). As to the kind of experiment: Inhibition of COX-1 (unknown origin).
The target in data set [3] is T1, Prostaglandin G/H synthase 2 (Homo sapiens, UniProt P35354).
T1 sequence (P35354 whole entry): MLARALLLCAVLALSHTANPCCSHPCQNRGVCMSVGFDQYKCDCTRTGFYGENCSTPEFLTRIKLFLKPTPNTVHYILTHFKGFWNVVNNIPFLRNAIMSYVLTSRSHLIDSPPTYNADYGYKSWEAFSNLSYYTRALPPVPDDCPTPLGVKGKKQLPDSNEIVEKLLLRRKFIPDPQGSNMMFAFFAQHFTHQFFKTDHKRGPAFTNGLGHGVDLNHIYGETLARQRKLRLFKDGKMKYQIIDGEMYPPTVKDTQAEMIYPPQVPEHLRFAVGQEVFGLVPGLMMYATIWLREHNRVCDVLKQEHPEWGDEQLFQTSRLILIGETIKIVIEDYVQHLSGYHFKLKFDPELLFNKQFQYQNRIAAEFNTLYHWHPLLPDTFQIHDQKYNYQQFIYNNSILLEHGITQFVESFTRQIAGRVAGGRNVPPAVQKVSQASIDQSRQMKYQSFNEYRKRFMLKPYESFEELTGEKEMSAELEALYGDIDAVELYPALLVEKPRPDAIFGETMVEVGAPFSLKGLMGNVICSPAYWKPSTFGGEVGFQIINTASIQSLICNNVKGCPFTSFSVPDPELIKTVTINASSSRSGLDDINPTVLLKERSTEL
Kind of data set: Inhibition of COX-2 (unknown origin).

Data set [4] relates to Rattus norvegicus. Kind of data set: Antiinflammatory activity against carrageenan-induced hind paw Albino Wistar rat model assessed as reduction in nitric oxide level in hind paw at 0.05 mmol/kg, po treated 1 hr before carrageenan challenge by griess reagent based microplate reader analysis. It is filed as functional, organism-based. In general terms: In the carrageenan paw model, swelling and tenderness develop within hours.

Data set [5] deals with Rattus norvegicus. Kind of data set: Antiinflammatory activity against carrageenan-induced hind paw Albino Wistar rat model assessed as reduction in serum IL-1 beta level at 0.05 mmol/kg, po treated 1 hr before carrageenan challenge by ELISA. The class given is functional.
The test system of data set [6] is Rattus norvegicus. As to the kind of experiment: Antiinflammatory activity against carrageenan-induced hind paw Albino Wistar rat model assessed as reduction in serum TNF-alpha level at 0.05 mmol/kg, po treated 1 hr before carrageenan challenge by ELISA. The class given is functional.
In data set [7] the test system is Rattus norvegicus. Kind of data set: Antiinflammatory activity against carrageenan-induced hind paw Albino Wistar rat model assessed as reduction in serum COX2 level at 0.05 mmol/kg, po treated 1 hr before carrageenan challenge by ELISA. It is filed as functional.
Another data set has as its system HeLa. As to the kind of experiment: Decrease in COX-2 gene expression in human HeLa cells at 10 uM after 24 hrs by real time PCR analysis relative to celecoxib. It is filed as functional. (Quantitative PCR measures a nucleic acid by following its amplification.)
For data set [8], the system named is Rattus norvegicus. As to the kind of experiment: Ulcerogenicity in Albino Wistar rat assessed as gastric ulceration and rupture of gastric mucosal layer at 0.15 mmol/kg, po measured after 5 hrs. The class given is toxicity, organism-based, Gastric mucosa. The settings on record: in vivo.
Data set [9] deals with Rattus norvegicus. Kind of data set: Antiinflammatory activity in Albino Wistar rat assessed as inhibition of carrageenan-induced hind paw edema at 0.05 mmol/kg, po treated 1 hr before carrageenan challenge measured 5 hrs post-carrageenan injection by plethysmometer analysis. The class given is functional.
In data set [10] the test system is Rattus norvegicus. Kind of data set: Antiinflammatory activity in Albino Wistar rat assessed as inhibition of carrageenan-induced hind paw edema at 0.05 mmol/kg, po treated 1 hr before carrageenan challenge measured 3 hrs post-carrageenan injection by plethysmometer analysis. The class given is functional.
A further data set has as its system Mus musculus. As to the kind of experiment: Antinociceptive activity in mouse assessed as inhibition of acetic acid-induced writhing at 0.05 mmol/kg, po administered 30 mins prior to acetic acid challenge measured for 20 mins after acetic acid injection. It is filed as functional.
Data set [11] relates to Rattus norvegicus. As to the kind of experiment: Antiinflammatory activity against carrageenan-induced hind paw Albino Wistar rat model assessed as reduction in nitric oxide level in hind paw at 0.05 mmol/kg, po treated 1 hr before carrageenan challenge measured per mg of wet tissue by griess reagent based microplate reader analysis. It is filed as functional.
In data set [12] the test system is Rattus norvegicus. Kind of data set: Antioxidant activity in carrageenan-induced hind paw Albino Wistar rat model assessed as increase in GSH level in hind paw joint at 0.05 mmol/kg, po treated 1 hr before carrageenan challenge measured per gm of tissue by plate reader analysis (reference value: 0.58 +/-0.02 ug). It is filed as functional.
For data set [13], the system named is Rattus norvegicus. As to the kind of experiment: Antioxidant activity in carrageenan-induced hind paw Albino Wistar rat model assessed as inhibition of lipid peroxidation by measuring TBARS level in hind paw at 0.05 mmol/kg, po treated 1 hr before carrageenan challenge by microplate reader analysis. It is filed as functional.

Activity calls are given as the source filed them. No cut-off for these calls is given here.

Sequence of Prostaglandin G/H synthase 1 (P23219 whole entry): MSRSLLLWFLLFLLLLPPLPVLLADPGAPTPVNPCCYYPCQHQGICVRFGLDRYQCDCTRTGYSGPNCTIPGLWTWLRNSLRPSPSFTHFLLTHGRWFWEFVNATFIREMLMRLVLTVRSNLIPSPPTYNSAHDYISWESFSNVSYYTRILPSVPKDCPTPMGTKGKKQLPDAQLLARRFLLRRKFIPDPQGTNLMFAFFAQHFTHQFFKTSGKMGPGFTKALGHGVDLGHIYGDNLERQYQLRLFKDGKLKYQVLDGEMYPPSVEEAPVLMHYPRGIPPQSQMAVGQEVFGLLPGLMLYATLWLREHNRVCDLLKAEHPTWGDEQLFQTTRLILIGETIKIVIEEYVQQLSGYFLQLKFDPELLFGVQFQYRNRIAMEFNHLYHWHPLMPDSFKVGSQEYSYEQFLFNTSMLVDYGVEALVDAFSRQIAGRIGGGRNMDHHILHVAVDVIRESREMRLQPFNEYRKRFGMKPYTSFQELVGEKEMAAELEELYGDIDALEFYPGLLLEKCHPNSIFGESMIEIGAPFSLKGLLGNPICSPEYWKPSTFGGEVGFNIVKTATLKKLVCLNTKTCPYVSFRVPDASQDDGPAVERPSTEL

As a reminder, the IC50 is the midpoint of a concentration-inhibition curve. Low values mean greater potency in that assay, high ones weaker potency in that assay. As to `Brc1ccccc1-n1cc(CSc2nc3ccccc3o2)nn1`, the inhibition entry with Rattus norvegicus [1] is “tde”. Moreover, the 50% inhibitory concentration (IC50) is 38.4 µM in [2] and 2.75 µM in data set [3]. In the data set on Rattus norvegicus [4], the inhibition entry was “Active”.
The corresponding values for `Fc1ccc(-n2cc(CSc3nc4ccccc4o3)nn2)cc1` are “tde”, 192 µM, 5.21 µM and “Active”.
For the compound `O=[N+]([O-])c1cccc(-n2cc(CSc3nc4ccccc4o3)nn2)c1`, the inhibition entry in the data set with Rattus norvegicus [1] was “tde”. Besides, the IC50 in data set [2] was found to be 104 µM; in data set [3], 9.58 µM. Moreover, the inhibition entry in the data set on Rattus norvegicus [4] was “Active”.
Consider `Cc1ccccc1-n1cc(CSc2nc3ccccc3o2)nn1`, for which the inhibition entry with Rattus norvegicus [1] was “tde”. Further, the half-maximal inhibitory concentration (IC50) worked out at 132 µM in data set [2] and 4.68 µM in data set [3]. In the data set with Rattus norvegicus [4], the inhibition result was “Active”.
For `Brc1ccc(-n2cc(CSc3nc4ccccc4o3)nn2)cc1`, the inhibition entry in the data set with Rattus norvegicus [1] is “tde”. The inhibition result in the data set on Rattus norvegicus [5], in the data set on Rattus norvegicus [6], in the data set with Rattus norvegicus [7] and with Rattus norvegicus [4] was “Active” each time. Further, the IC50 in data set [2] turned out to be 186 µM; in data set [3] it was 2.8 µM. Moreover, the “fold change (FC)” value in the data set on HeLa came out at 0.79. Moreover, in the data set on Rattus norvegicus [8], the Activity entry is on record as “Non-toxic”.
As for `c1ccc(-n2cc(CSc3nc4ccccc4o3)nn2)cc1`, in the data set on Rattus norvegicus [1], the inhibition result is “tde”. In addition, the IC50 in [2] is 107 µM; in data set [3], 6.42 µM. The inhibition entry in the data set with Rattus norvegicus [4] is “Active”.
Turning to `Clc1ccccc1-n1cc(CSc2nc3ccccc3o2)nn1`, in the data set on Rattus norvegicus [1], the inhibition result is “tde”. Further, the results for the 50% inhibitory concentration (IC50) in [2] and in data set [3] were 44.4 µM and 3.53 µM, respectively. Moreover, the inhibition result in the data set on Rattus norvegicus [4] was “Active”.
In the case of `CC(C)(C)c1ccc(-n2cc(CSc3nc4ccccc4o3)nn2)cc1`, in the data set on Rattus norvegicus [1], the inhibition result is “tde”. Further, the IC50 in data set [2] was found to be 154 µM; in data set [3], 3.85 µM. In addition, in the data set on Rattus norvegicus [4], the inhibition entry was “Active”.
Broadly, the inhibition in vivo is the percentage by which the read-out fell short of the control. As to `Clc1ccc(-n2cc(CSc3nc4ccccc4o3)nn2)cc1`, the inhibition in vivo at 50 µmol/kg in the data set with Rattus norvegicus [9] stood at 55.5%; with Rattus norvegicus [10] it was 68.9%; in the data set with Mus musculus, 51.5%. Besides, the inhibition entry in the data set on Rattus norvegicus [1] is “tde”. The inhibition entry with Rattus norvegicus [5], in the data set with Rattus norvegicus [6], in the data set on Rattus norvegicus [7] and in the data set with Rattus norvegicus [4] was “Active” throughout. In addition, the IC50 in data set [2] worked out at 80.8 µM; in [3] it was 1.9 µM. In the data set with Rattus norvegicus [8], the Activity entry was “Non-toxic”.
On to `COc1ccc(-n2cc(CSc3nc4ccccc4o3)nn2)cc1`, for which, in the data set on Rattus norvegicus [1], the inhibition entry is “tde”. The inhibition entry in the data set on Rattus norvegicus [5] and in the data set on Rattus norvegicus [4] was “Active” in each case. Further, the figures for the Activity in the data set with Rattus norvegicus [6], in the data set on Rattus norvegicus [7] and in the data set with Rattus norvegicus [8] were 3.1 pg/mL, 6.54 nmol/min/mL and “Non-toxic”, respectively. Moreover, the results for the 50% inhibitory concentration (IC50) in data set [2] and in data set [3] were 89.4 µM and 2.3 µM, respectively. In the data set on Mus musculus, the inhibition in vivo at 50 µmol/kg turned out to be 55.5%.
For `Fc1ccccc1-n1cc(CSc2nc3ccccc3o2)nn1`, the inhibition result in the data set on Rattus norvegicus [1] was “tde”. Moreover, the IC50 in [2] turned out to be 24.2 µM; in [3], 2.4 µM. For the same compound, the inhibition entry in the data set on Rattus norvegicus [4] was “Active”.
In the case of `c1cncc(-n2cc(CSc3nc4ccccc4o3)nn2)c1`, in the data set on Rattus norvegicus [1], the inhibition result was “tde”. The IC50 in data set [2] amounted to 96.6 µM; in [3] it was 3.98 µM. In addition, in the data set with Rattus norvegicus [4], the inhibition entry was “Active”.
For the compound `CCc1ccc(-n2cc(CSc3nc4ccccc4o3)nn2)cc1`, the inhibition in vivo at 50 µmol/kg turned out to be 61.1% in the data set on Rattus norvegicus [9] and 66.7% in the data set on Rattus norvegicus [10]. In addition, the inhibition result with Rattus norvegicus [1] was “tde”. The inhibition result in the data set on Rattus norvegicus [5], with Rattus norvegicus [6], with Rattus norvegicus [7] and with Rattus norvegicus [4] was “Active” each time. The half-maximal inhibitory concentration (IC50) is 246 µM in data set [2] and 3.8 µM in data set [3]. Besides, the “fold change (FC)” value in the data set on HeLa worked out at 0.94. The Activity is 5.1 µmol with Rattus norvegicus [11], 0.84 µg in the data set with Rattus norvegicus [12] and “Non-toxic” in the data set with Rattus norvegicus [8].
Consider `Cc1ccc(-n2cc(CSc3nc4ccccc4o3)nn2)cc1C`, for which the inhibition result with Rattus norvegicus [1] was “tde”. Further, the IC50 came out at 140 µM in data set [2] and 4.35 µM in data set [3]. In addition, the inhibition entry in the data set with Rattus norvegicus [4] is “Active”.
For `CCOc1ccc(-n2cc(CSc3nc4ccccc4o3)nn2)cc1`, the inhibition result in the data set on Rattus norvegicus [1] was “tde”. The Activity in the data set on Rattus norvegicus [5] is 2.66 pg/mL; in the data set on Rattus norvegicus [12], 0.84 µg; in the data set with Rattus norvegicus [13], 5.1 nmol; in the data set on Rattus norvegicus [8], “Non-toxic”. Also, the inhibition entry in the data set with Rattus norvegicus [6], in the data set on Rattus norvegicus [7] and with Rattus norvegicus [4] was “Active” in each case. The IC50 is 163 µM in [2] and 3.5 µM in data set [3].
In the case of `O=[N+]([O-])c1ccc(-n2cc(CSc3nc4ccccc4o3)nn2)cc1`, the inhibition result in the data set on Rattus norvegicus [1] was “tde”. The IC50 in data set [2] stood at 115 µM; in data set [3], 9.87 µM. Further, the inhibition entry in the data set with Rattus norvegicus [4] is “Active”.
The matching figures for `Clc1ncccc1-n1cc(CSc2nc3ccccc3o2)nn1`: “tde”, 103 µM, 5.03 µM and “Active”.
Turning to `Clc1cccc(-n2cc(CSc3nc4ccccc4o3)nn2)c1`, the inhibition entry in the data set on Rattus norvegicus [1] was “tde”. The values for the half-maximal inhibitory concentration (IC50) in data set [2] and in [3] were 88.3 µM and 4.63 µM, respectively. Further, the inhibition entry in the data set with Rattus norvegicus [4] was “Active”.
On to `Cc1ccc(-c2cc(C(F)(F)F)nn2-c2ccc(S(N)(=O)=O)cc2)cc1` [CELECOXIB], for which the inhibition in vivo at 50 µmol/kg in the data set on Rattus norvegicus [9] was found to be 65.5%; in the data set on Rattus norvegicus [10], 72.2%; with Mus musculus, 70.9%. The Activity was 2.9 pg/mL in the data set on Rattus norvegicus [5]; 3.35 pg/mL in the data set on Rattus norvegicus [6]; 7.9 nmol/min/mL in the data set on Rattus norvegicus [7]; 5.5 µmol in the data set on Rattus norvegicus [11]; 0.81 µg in the data set with Rattus norvegicus [12]; 6.3 nmol in the data set on Rattus norvegicus [13]. Further, the inhibition entry with Rattus norvegicus [4] was “Active”.

(Values after ChEMBL document CHEMBL3259784, “Synthesis of novel 2-mercaptobenzoxazole based 1,2,3-triazoles as inhibitors of proinflammatory cytokines and suppressors of COX-2 gene expression” (Eur J Med Chem, 2014).)
